Test results published in ChEMBL document CHEMBL1157539, “Thousands of chemical starting points for antimalarial lead identification” (Nature, 2010).

Tested on: Plasmodium falciparum
Experiment: GSK_TCMDC: Inhibition of Plasmodium falciparum 3D7 in whole erythrocytes, using parasite LDH activity as an index of growth.
Assay type: functional, organism-based

SMILES | XC50 (Plasmodium falciparum, 3D7) [nM] | XC50 [nM]
CN(C)c1ccc(C=Cc2nc(=O)c3ccccc3o2)cc1 | 44.6 | –
CCCCCCCNCc1c(O)ccc2c(CNCCCCCCC)c(O)ccc12 | 150 | –
Nc1ncc(-c2ccccc2)cc1-c1cccc2ncccc12 | 272 | –
CCn1c(Sc2ccc([N+](=O)[O-])c(C#N)c2)nnc1-c1ccc(Cl)cc1 | 1000 | –
CCCCCCC(CC)c1cc(O)c2c(c1)OC(C)(C)c1ccncc1-2 (centres undefined) | 808 | –
CS(=O)(=O)c1ccccc1CNC(=O)c1ccc(-c2cccc(-c3nc4cc(C(F)(F)F)ccc4[nH]3)c2)cc1 | 866 | –
COc1cc(-c2nc(-c3ccc(C(=O)c4ccc(F)cc4)cc3)c(-c3ccccc3)[nH]2)cc(OC)c1O | 659 | –
Cc1ccc(Nc2nc(C)cc(Nc3cccc(C#N)c3)n2)cc1 | 978 | –
Cc1ccc(C(c2nnnn2C2CCCC2)N(Cc2ccco2)Cc2ccccc2Cl)cc1 (centres undefined) | 959 | –
O=C(/C=C/c1ccc(Cl)c(Cl)c1)NCCCCCN1C2CCC1CC(c1c[nH]c3ccc(O)cc13)C2 (centres undefined) | 998 | 879
CCOC(=O)c1nc(-c2cc(Cl)nc(Cl)c2)[nH]c1NC(=S)NCc1ccc(NS(C)(=O)=O)cc1 | 892 | –
c1cc(CNC2CCCC2)cc(-c2ccc(CNc3ccc4ncccc4c3)cc2)c1 | 773 | –
Cc1[nH]c(C)c(-c2ccc(Oc3ccc(Cl)cc3)cc2)c(=O)c1C | 385 | –
N#Cc1ccc(CCNc2nccc(-c3cccc(CN4CCNCC4)c3)n2)cc1 | 1250 | –
O=c1cc(NCCCCNCc2cccc(Cl)c2)[nH]c2ccccc12 | 743 | –
Cc1cc(NC2CCN(Cc3ccccc3)CC2)nc(NCCCCc2ccccc2)n1 | 383 | –
Cc1[nH]cc(Br)c(=O)c1-c1ccc(Oc2ccccc2)cc1 | 678 | –
CC(C)CNCc1cccc(-c2cccc(CN(C(=O)NC3CCCCC3)C3CCN(Cc4ccccc4)CC3)c2)c1 | 821 | –
N#Cc1ccc(CN2CCC(Oc3ccc(NC(=O)c4ccsc4)cc3Cl)C2)cc1 (centres undefined) | 674 | –
CCOc1ccc2c(=NN=Cc3ccccc3OC)cc(C)[nH]c2c1 | 496 | –
CCOc1c(OC)ccc2c1CCN(CCN1CCC(CNC(=O)c3ccc(-c4ccc(C#N)cc4)cc3)CC1)C2 | 1080 | –
CN1CCCN(Cc2ccc(-c3cccc(NC(=O)c4ccc(C#N)cc4)c3)cc2)CC1 | 744 | –
CCc1ccc(CN2CCC(CNC(=O)c3cc(-c4ccccc4F)cs3)C2)cc1 (centres undefined) | 899 | –
CCC(=O)Nc1nnc(Cc2ccc(OC)c(OC)c2)s1 | 910 | –

SMILES | XC50 (Plasmodium falciparum, 3D7) [nM] | XC50 [nM]
NC(CC1CC(=O)N1CC(=O)O)C(=O)O (centres undefined) | 156 | –
Cc1cc(N(C)C)nc(Nc2ccc(NC(=O)c3ccc(F)cc3)cc2)n1 | 709 | –
CCCNC(=O)C1Cc2cc(OC)c(OC)cc2C2(N1)C(=O)N(Cc1cccc(OC)c1)c1ccccc12 (centres undefined) | 863 | –
COc1ccc(C(=O)NCc2ccc(N)nc2C)cc1Nc1ncc(-c2cccc(N(C)C)c2)cn1 | 897 | –
O=C(/C=C/c1ccc(Cl)c(Cl)c1)NCCCCCN1CCCN(C(=O)Nc2ccc(Cl)cc2)CC1 | 735 | –
Cc1cc(N[C@@H](Cc2ccccc2)C(=O)NCCc2ccccc2)nc(NCCc2cccs2)n1 | 713 | –
Oc1cccc(-c2cnc3ccc(NCc4ccc(F)cc4)nn23)c1 | 1080 | –
Cc1ccc(-c2nc3ccccc3o2)cc1NCc1cc(Cc2ccccc2)ccc1O | 1030 | –
COc1cc(NC(=O)Nc2cccc3ccccc23)c(OC)cc1Cl | 484 | –
O=C(CCc1c[nH]cn1)Nc1cccc(-c2ccc(-c3nc4cc(F)ccc4[nH]3)cc2)c1 | 244 | –
CN1CCN(Cc2ccc(-c3ccc4c(Nc5ccc(Oc6ccccn6)cc5)ccnc4c3)o2)CC1 | 145 | –
O=C(O)c1ccc2nc(-c3ccccn3)c(-c3ccccn3)nc2c1 | 217 | –
CC(=O)Nc1ccc(C(=O)Nc2cccc(-c3ccc(-c4nc5cc(C(F)(F)F)ccc5[nH]4)cc3)c2)cn1 | 231 | –
O=C(c1cccc(Br)c1)N1CCN(c2ccc([N+](=O)[O-])c(NC3CC3)c2)CC1 | 936 | –
Cc1cc(N)c2cc(NC(=O)c3cccc(C(=O)Nc4ccc5nc(C)cc(N)c5c4)c3)ccc2n1 | 256 | –
COCCNCc1cccc(-c2ccc3c(Nc4ccc(Oc5cccnc5)cc4)ccnc3c2)c1 | 178 | –
CN(C)CCCOc1ccc(CN2CC[C@H](NC(=O)c3ccc(Cl)c(Cl)c3)C2)c2ccccc12 | 879 | –
NC1=NC(c2ccccc2)(c2ccccc2)C(=O)N1Cc1ccc(-c2cccnc2)cc1 | 704 | –
Cc1ccc(Oc2c(-c3ccccc3CN3CCCC3CN(C)C)cnn(C)c2=O)cn1 (centres undefined) | 1160 | –
Cc1ccc(Nc2nccc(N(C)c3ccc4c(c3)nc(NC(=O)Cc3ccc(Cl)c(Cl)c3)n4C)n2)cc1S(N)(=O)=O | 1110 | –
COc1ccc2nc(C)cc(N/N=C/c3ccc([N+](=O)[O-])o3)c2c1 | 698 | –
CN(Cc1ccncc1)C(Cc1ccccc1)C1CCN(Cc2ccc(O)c(Cl)c2)CC1 (centres undefined) | 747 | –
O=C1SC(=Cc2ccc(O)c(O)c2)C(=O)N1c1ccccc1 | 1200 | –
COc1ccccc1CCNc1nc(C)cc(N[C@@H](Cc2ccccc2)C(=O)NCc2cccc(F)c2)n1 | 867 | –
